From patent publication US20210130339A1, “COMPOUNDS” (GLAXOSMITHKLINE INTELLECTUAL PROPERTY DEVELOPMENT LIMITED, priority 2017, published 2021)
“And” between values parts separate entries of the source, which are not always exact repeats. Equal entries are not always repeated.

Legend:
[1] = target: T1, recombinant full length LRRK2 (Homo sapiens, UniProt Q5S007); test: Recombinant cellular LRRK2 AlphaScreen assay; type: cell-based; settings: LRRK2 Ser935 phosphorylation, SH-SY5Y cells over-expressing recombinant full length LRRK2; read-out: pIC50 in the recombinant cellular LRRK2 AlphaScreen assay (converted)
T1 construct: A BacMam virus expressing full length recombinant LRRK2 was purchased from Invitrogen; host or cells: SH-SY5Y human neuroblastoma cells transduced with BacMam LRRK2 virus (MOI 50)
T1 sequence (Q5S007 whole entry): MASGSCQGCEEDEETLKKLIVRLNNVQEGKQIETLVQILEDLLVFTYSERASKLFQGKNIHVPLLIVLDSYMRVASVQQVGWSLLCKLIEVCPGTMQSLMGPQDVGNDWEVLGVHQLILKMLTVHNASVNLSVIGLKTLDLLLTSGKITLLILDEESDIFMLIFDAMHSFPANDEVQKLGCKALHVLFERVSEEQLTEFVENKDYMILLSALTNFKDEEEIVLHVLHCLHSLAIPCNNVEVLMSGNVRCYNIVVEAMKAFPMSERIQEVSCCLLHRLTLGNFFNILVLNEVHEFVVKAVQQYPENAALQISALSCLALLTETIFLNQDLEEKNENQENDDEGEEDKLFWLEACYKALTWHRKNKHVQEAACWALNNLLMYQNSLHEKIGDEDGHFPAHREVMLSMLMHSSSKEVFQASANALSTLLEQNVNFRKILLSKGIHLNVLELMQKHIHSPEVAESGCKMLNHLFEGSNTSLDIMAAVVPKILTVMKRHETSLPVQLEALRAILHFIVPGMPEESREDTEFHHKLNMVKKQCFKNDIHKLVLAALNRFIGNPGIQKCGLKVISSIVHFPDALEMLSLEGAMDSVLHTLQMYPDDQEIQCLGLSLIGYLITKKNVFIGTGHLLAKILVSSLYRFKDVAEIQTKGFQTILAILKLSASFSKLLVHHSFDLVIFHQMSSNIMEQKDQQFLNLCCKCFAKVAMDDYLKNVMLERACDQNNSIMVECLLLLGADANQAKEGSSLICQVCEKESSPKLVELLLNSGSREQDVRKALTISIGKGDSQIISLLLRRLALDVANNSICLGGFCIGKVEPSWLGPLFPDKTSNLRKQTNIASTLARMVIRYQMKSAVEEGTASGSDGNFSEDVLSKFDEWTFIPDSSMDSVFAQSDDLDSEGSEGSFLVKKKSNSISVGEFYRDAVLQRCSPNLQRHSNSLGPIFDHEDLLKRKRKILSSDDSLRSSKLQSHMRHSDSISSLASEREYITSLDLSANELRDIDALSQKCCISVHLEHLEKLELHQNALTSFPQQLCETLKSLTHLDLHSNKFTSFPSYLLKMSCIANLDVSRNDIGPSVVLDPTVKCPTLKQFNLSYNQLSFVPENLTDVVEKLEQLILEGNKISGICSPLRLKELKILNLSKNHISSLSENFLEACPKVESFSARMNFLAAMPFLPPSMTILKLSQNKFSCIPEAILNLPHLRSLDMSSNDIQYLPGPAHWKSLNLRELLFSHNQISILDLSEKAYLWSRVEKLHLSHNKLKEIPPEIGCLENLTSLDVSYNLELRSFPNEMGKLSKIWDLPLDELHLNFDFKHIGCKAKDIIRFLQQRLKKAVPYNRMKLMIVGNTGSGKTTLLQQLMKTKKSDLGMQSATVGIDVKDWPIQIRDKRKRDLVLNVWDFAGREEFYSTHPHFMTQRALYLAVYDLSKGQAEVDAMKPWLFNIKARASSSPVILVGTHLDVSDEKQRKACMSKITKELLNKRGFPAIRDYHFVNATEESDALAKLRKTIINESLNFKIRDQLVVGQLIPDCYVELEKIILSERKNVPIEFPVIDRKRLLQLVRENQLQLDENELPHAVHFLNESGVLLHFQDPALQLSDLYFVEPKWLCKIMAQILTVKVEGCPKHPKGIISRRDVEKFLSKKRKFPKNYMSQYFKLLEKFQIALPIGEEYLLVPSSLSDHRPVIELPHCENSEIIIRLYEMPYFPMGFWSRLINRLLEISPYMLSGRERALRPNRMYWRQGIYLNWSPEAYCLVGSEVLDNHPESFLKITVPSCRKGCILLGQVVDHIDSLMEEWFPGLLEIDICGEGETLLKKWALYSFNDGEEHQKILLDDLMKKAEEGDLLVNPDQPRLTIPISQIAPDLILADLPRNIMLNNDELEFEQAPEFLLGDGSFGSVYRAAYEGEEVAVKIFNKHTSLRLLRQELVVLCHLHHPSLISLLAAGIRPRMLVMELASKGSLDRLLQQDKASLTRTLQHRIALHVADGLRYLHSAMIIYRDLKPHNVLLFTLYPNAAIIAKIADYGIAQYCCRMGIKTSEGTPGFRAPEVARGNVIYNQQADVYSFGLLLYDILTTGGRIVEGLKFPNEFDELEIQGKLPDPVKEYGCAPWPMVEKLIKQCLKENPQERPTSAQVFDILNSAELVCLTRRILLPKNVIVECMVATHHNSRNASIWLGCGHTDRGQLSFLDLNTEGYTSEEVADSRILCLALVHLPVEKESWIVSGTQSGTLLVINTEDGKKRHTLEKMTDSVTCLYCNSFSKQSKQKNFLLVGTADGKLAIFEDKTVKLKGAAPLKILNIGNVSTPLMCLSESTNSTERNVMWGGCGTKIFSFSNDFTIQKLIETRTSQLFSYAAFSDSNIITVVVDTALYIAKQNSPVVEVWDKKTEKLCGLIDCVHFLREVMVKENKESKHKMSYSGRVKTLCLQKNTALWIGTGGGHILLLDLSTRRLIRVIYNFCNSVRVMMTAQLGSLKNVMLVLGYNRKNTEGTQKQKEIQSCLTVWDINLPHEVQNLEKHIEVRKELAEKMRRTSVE
Source text: b. Recombinant Cellular LRRK2 AlphaScreen Assay
To determine the activity of compounds against LRRK2 kinase activity in cells, the observed LRRK2 kinase-dependent modulation of LRRK2 Ser 935 phosphorylation (Dzamko et al., 2010, Biochem. J. 430: 405-413) was utilized to develop a quantitative 384 well plate-based immunoassay of LRRK2 Ser935 phosphorylation in the human neuroblastoma cell line SH-SY5Y, engineered to over-express recombinant full length LRRK2 protein. A BacMam virus expressing full length recombinant LRRK2 was purchased from Invitrogen and amplified by inoculation of SF-9 cells at MOI 0.3 for 4-5 days in Sf-900 III SFM medium supplemented with 3% fetal bovine serum. Infected cell cultures were then centrifuged at 2000 g for 20 minutes, viral supernatant titer determined by anti-gp64 plaque assay and stored at 4° C. Affinity-purified anti-phospho LRRK2 Ser935 sheep polyclonal antibody (Dzamko et al., 2010, Biochem. J. 430: 405-413) was biotinylated by standard methods (PerkinElmer). Anti-LRRK2 rabbit polyclonal antibody was purchased from Novus Biologicals. AlphaScreen Protein A IgG Kit (including acceptor and donor beads) was purchased from Perkin Elmer. SH-SY5Y cells were grown in DMEM/F12 medium with 10% dialysed fetal bovine serum and harvested by treatment with 0.5% trypsin-EDTA for 5 minutes at 37° C. followed by centrifugation at 1000 rpm for 4 minutes. The cell pellet was resuspended in Opti-MEM reduced serum media (Invitrogen) at 200,000 cells/ml and mixed with the BacMam LRRK2 virus at MOI=50. 50 μl cell solutions were then dispensed to each well of a 384-well plate and incubated at 37° C., 5% CO2 for 24 hours. Serial dilutions of test compounds were prepared in Opti-MEM reduced serum media (Invitrogen) and 5.6 ul transferred from compound plate to cell assay plate to achieve a top final assay concentration of 10 uM. DMSO was used in certain wells as controls. Cells were incubated at 37° C., 5% CO2 for 60 minutes. The medium was then removed and cells lysed by addition of 20 ul cell lysis buffer (Cell Signaling Technology) and incubation at 4° C. for 20 minutes. 10 ul of antibody/acceptor bead mix [(1/1000 biotinylated-pS935 LRRK2 antibody, 1/1000 total-LRRK2 antibody, 1/100 Acceptor beads in AlphaScreen detection buffer (25 mM Hepes (pH 7.4), 0.5% Triton X-100, 1 mg/ml Dextran 500 and 0.1% BSA)] was then added to each well and plates incubated for 2 hours at ambient temperature in the dark. 10 μl of donor beads solution (1/33.3 donor beads in AlphaScreen detection buffer) was then added to each well. Following incubation for a further 2 hours at ambient temperature in the dark, plates were read on an EnVision™ plate reader at emission 520-620 nm with excitation 680 nm. Dose response curve data was based on sigmoidal dose-response model.

[2] = target: T2, Full length G2019 human LRRK2 (Homo sapiens, UniProt Q5S007); test: Full length G2019 human LRRK2 Inhibition Mass Spectrometry assay; type: biochemical; settings: LRRKtide substrate, RapidFire mass spectrometry; read-out: pIC50 in the Full length G2019 human LRRK2 Inhibition Mass Spectrometry assay (converted)
T2 construct: purified recombinant Full length Flag-LRRK2 in assay buffer; made in house; host or cells: HEK293 6E cells transduced with BacMam virus (virus generated in Sf9 cells)
T2 sequence (Q5S007 with tags, fused parts or gaps R50H): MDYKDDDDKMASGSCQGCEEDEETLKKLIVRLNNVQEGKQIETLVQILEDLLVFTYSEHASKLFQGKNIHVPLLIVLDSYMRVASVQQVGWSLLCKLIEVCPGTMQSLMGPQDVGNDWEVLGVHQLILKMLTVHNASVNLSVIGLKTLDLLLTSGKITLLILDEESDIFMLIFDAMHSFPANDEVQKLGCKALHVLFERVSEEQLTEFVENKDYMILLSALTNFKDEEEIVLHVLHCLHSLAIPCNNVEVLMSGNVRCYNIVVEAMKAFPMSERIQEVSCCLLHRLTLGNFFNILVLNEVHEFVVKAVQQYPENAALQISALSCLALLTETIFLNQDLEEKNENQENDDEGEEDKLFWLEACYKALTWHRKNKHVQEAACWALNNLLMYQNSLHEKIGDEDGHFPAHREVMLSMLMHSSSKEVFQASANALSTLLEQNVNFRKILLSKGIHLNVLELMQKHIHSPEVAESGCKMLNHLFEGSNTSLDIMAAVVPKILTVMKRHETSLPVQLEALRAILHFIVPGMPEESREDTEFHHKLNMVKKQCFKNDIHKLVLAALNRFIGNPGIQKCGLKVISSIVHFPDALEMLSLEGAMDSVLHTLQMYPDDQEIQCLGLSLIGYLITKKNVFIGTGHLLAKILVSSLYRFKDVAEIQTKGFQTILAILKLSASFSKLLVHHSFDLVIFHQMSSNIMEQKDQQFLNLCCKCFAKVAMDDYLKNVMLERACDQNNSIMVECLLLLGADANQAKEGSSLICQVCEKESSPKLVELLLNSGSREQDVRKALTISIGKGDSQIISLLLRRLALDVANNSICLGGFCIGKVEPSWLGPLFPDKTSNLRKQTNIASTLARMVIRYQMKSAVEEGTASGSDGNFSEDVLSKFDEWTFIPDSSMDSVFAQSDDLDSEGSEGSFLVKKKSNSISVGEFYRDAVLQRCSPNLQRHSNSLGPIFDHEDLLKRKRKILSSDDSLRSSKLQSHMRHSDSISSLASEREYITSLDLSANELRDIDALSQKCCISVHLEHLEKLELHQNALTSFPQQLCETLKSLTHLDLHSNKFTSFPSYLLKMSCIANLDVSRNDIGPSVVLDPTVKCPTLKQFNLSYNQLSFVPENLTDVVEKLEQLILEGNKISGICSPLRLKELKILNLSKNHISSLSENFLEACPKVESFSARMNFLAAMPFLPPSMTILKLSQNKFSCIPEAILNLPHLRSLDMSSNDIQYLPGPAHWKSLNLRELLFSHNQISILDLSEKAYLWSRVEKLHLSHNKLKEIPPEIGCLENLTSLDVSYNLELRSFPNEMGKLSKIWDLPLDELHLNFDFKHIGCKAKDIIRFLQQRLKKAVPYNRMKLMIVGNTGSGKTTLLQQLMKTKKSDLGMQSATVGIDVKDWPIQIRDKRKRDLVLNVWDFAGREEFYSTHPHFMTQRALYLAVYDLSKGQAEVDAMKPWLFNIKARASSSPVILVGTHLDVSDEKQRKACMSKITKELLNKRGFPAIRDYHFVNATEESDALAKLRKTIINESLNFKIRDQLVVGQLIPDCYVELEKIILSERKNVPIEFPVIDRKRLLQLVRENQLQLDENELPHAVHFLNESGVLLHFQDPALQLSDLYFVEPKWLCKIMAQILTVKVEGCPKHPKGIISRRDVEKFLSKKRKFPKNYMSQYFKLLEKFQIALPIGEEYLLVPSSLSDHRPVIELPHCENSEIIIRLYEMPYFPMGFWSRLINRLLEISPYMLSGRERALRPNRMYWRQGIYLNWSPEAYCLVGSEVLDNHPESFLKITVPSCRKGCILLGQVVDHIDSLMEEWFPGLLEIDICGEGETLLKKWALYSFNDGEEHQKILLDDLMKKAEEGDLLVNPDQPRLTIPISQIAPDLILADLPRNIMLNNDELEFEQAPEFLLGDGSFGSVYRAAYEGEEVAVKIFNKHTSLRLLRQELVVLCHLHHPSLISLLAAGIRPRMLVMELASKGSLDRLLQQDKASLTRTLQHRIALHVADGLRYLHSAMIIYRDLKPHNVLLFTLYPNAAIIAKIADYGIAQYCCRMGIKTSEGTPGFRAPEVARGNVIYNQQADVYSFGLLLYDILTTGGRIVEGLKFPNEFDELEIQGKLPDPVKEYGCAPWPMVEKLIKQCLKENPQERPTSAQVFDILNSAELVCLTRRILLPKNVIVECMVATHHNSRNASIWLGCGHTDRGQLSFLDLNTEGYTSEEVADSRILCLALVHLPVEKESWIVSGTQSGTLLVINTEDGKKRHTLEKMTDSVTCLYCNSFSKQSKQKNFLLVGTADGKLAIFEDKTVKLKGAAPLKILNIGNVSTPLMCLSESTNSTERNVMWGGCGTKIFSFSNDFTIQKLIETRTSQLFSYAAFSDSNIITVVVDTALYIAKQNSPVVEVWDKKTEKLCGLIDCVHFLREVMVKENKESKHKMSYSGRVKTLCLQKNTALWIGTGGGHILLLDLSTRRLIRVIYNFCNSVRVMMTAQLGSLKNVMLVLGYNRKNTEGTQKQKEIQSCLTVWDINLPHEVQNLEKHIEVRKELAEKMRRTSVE
Protocol: a. Full Length G2019 Human LRRK2 Inhibition Mass Spectrometry Assay
This assay for Leucine Rich Repeat Kinase 2 (LRRK2) inhibition is based on the direct measurement of the peptide ‘LRRKtide’ (LRRKtide: RLGRDKYKT*LRQIRQ and “*” refers to the site of phosphorylation.) and phosphorylated ‘LRRKtide’ using a high throughput RapidFire mass spectrometry assay. Inhibitors are compounds that reduce the conversion of LRRKtide to phospho-LRRKtide.
HEK293 6E cells were incubated in a 37° C. incubator with a humidified atmosphere of 5% CO2 on an orbital shaker rotating at 110 rpm. On the day of transduction, the cell viability was higher than 98% and the cell density was in the range of 1×10^6˜1.5×10^6 cells/ml. HEK293 6E cells were centrifuged at 1,000 rpm for 10 min, and then the cells were resuspended in fresh Freestyle 293 expression medium (Invitrogen:12338) with 0.1% F-68 (Invitrogen:24040-032) but without antibiotics (G418) at density of 1×10^6 cells/ml. BacMam virus with Flag-hu LRRK2 (genotypically normal) gene was centrifuged at 40,000 g for 2 hours, then resuspended in fresh Freestyle 293 expression medium. The resuspended virus was added into the cells in at MOI of 10. The cells were incubated in a 37° C. incubator with a humidified atmosphere of 5% CO2 in air on an orbital shaker rotating at 110 rpm. Cultures were harvested at approximately 48 hours post-transduction by centrifugation at 4,000 rpm for 20 min and pellets were frozen for purification.
The suspended cells were lysed by sonication on ice for 30 min (2 secs on/4 sec off, 20% amplitude), and centrifuged at 10,000 rpm for 30 minutes at 4° C. The supernatant was incubated with 1 mL per litre of cell culture of anti-Flag magnetic beads (Sigma-Aldrich: M8823) at 4° C. for 3 hours, then the beads were washed by 5 mL (5 column volume) binding buffer (50 mM Tris pH7.5@ 4C, 500 mM NaCl, 0.5 mM EDTA, 0.1% TritonX-100, 10% glycerol, freshly add 2 mM DTT) for three times. The Flag tagged LRRK2 proteins were eluted by Elution buffer (50 mM Tris pH7.5@ 4C, 500 mM NaCl, 0.5 mM EDTA, 0.1% TritonX-100, 10% glycerol, freshly add 2 mM DTT, 250 ug/ml Flag peptide (Sigma-Aldrich:F3290)) at 4° C. for 2 hours. Flag peptide was removed by Zeba Spin Desalting Columns, 7K MWCO (Thermo-Fisher: 89893) and the buffer of eluted LRRK2 proteins was exchanged into Storage Buffer (50 mM Tris pH7.5@4C, 150 mM NaCl, 0.5 mM EDTA, 0.02% Triton X-100, 2 mM DTT and 50% Glycerol) using Amicon Ultra Centrifugal Filter Units (100 kD) (Merck: UFC910096). Fractions containing LRRK2 proteins were pooled, aliquoted and stored at −80° C. Protein concentration was determined by Bradford protein assay, and protein purity was analyzed by NuPAG Novex 4-12% Bis-Tris Protein Gels (Invitrogen: NP0322BOX).
• 1) A 10 mM test compound was dissolved in 100% DMSO and serially diluted 1 in 4. 100 nL of this dilution series was then added to a 384 well, v bottom polypropylene plate, excluding columns 6 and 18. 100 nL of DMSO was added to columns 6 and 18 as controls wells. Assay dilution gave a top final assay concentration of test compound of 100 μM • 2) 50 μl of 1% formic acid in laboratory grade water was added to column 18 using a multidrop combi dispenser to act as a pre stopped assay control. • 3) 5 μl of ‘enzyme solution’ containing 50 nM of purified recombinant Full length Flag-LRRK2 in assay buffer (50 mM Hepes (pH 7.2), 10 mM MgCl2, 150 mM NaCl, 5% glycerol, 0.0025% triton X-100 and 1 mM DTT) was added to all wells using a multidrop combi dispenser, giving a final assay concentration of 25 nM LRRK2 enzyme. […] Test plates were then incubated for 30 minutes at room temperature. • 4) 5 μl ‘substrate solution’ containing 50 uM LRRKtide peptide substrate and 4 mM ATP was added to all wells of the plate using a multidrop combi dispenser giving a final assay concentration of 25 uM LRRKtide and 2 mM ATP. Test plates were then incubated for 1 hour at room temperature. […]

Structure (SMILES)	IC50 [1]	IC50 [2]
COc1nc(N2CCO[C@H](CO)C2)cc(-n2ncc3cc(C)c(C4CCN(C5CCOC5)CC4F)cc32)n1 (single isomer, unassigned) [Example E124]	≤ 100 nM	≤ 100 nM
Cc1nc(N2CC(C)(O)C2)cc(-n2ncc3cc(Cl)c(C4CCN(C5CCOC5)CC4)cc32)n1 (single isomer, unassigned) [Example E128, 1-(6-(5-chloro-6-(1-(tetrahydrofuran-3-yl)piperidin-4-yl)-1H-indazol-1-yl)-2-methyl-pyrimidin-4-yl)-3-methylazetidin-3-ol]	≤ 1000 nM	≤ 1000 nM
COc1nc(N2CCO[C@@H](CO)C2)cc(-n2ncc3cc(C)c(C4CCN(C5CCOC5)CC4F)cc32)n1 (single isomer, unassigned) [Example E117]	≤ 10 nM	≤ 1000 nM
COc1nc(N2CCOCC2)cc(-n2ncc3cc(C)c(C4CCN(C5CCOC5)CC4F)cc32)n1 (single isomer, unassigned) [Example E115, Cis-4-(6-(6-(3-fluoro-1-(tetrahydrofuran-3-yl)-piperidin-4-yl)-5-methyl-1H-indazol-1-yl)-2-methoxypyrimidin-4-yl)morpholine]	≤ 10 nM	≤ 10 nM
[2H]C1(N2CCC(c3cc4c(cnn4-c4cc(N5CCO[C@H](CO)C5)nc(C)n4)cc3C)CC2)CCOC1 (single isomer, unassigned) [Example E34]	≤ 100 nM and 100 nM	≤ 1000 nM and 63.1 nM
Cc1nc(N2CCO[C@H](CO)C2)cc(-n2ncc3cc(C)c(C4CCN(C5COCC5F)CC4)cc32)n1 (single isomer, unassigned) [Example E149]	≤ 1000 nM	≤ 100 nM
Cc1nc(N2CCO[C@H](CO)C2)cc(-n2ncc3cc(C)c(C4CCN(C5COCC5O)CC4)cc32)n1 (single isomer, unassigned) [Example E153]	≤ 100 nM	≤ 100 nM
Cc1nc(N2CCOC(C(C)O)C2)cc(-n2ncc3cc(C)c(C4CCN(C5CCOC5)CC4)cc32)n1 (single isomer, unassigned) [Example E142, 1-(4-(2-methyl-6-(5-methyl-6-(1-(tetrahydrofuran-3-yl)piperidin-4-yl)-1H-indazol-1-yl)pyrimidin-4-yl)morpholin-2-yl)ethanol]	≤ 1000 nM	≤ 1000 nM
[2H]c1nn(-c2cc(N3CCO[C@@H](CO)C3)nc(C)n2)c2cc(C3CCN([C@@H]4CCOC4)CC3)c(C)cc12 [Example E94, ((R)-4-(6-(3-deuterium-5-methyl-6-(1-((R)-tetrahydrofuran-3-yl)piperidin-4-yl)-1H-indazol-1-yl)-2-methylpyrimidin-4-yl)morpholin-2-yl)methanol]	≤ 1000 nM	≤ 100 nM
Cc1nc(N2CCOC(C(C)O)C2)cc(-n2ncc3cc(C)c(C4CCN(C5CCOC5)CC4)cc32)n1 (single isomer, unassigned) [Example E140, 1-(4-(2-methyl-6-(5-methyl-6-(1-(tetrahydrofuran-3-yl)piperidin-4-yl)-1H-indazol-1-yl)pyrimidin-4-yl)morpholin-2-yl)ethanol]	≤ 1000 nM	≤ 100 nM
Cc1nc(N2CCOC(C(C)O)C2)cc(-n2ncc3cc(C)c(C4CCN(C5CCOC5)CC4)cc32)n1 (single isomer, unassigned) [Example E141, 1-(4-(2-methyl-6-(5-methyl-6-(1-(tetrahydrofuran-3-yl)piperidin-4-yl)-1H-indazol-1-yl)pyrimidin-4-yl)morpholin-2-yl)ethanol]	≤ 1000 nM	≤ 100 nM
Cc1nc(N[C@H]2C[C@@H](O)C2)cc(-n2ncc3cc(C)c(C4CCN(C5CCOC5)CC4)cc32)n1 (single isomer, unassigned) [Example E134, Cis-3-((2-methyl-6-(5-methyl-6-(1-(tetrahydrofuran-3-yl)piperidin-4-yl)-1H-indazol-1-yl)pyrimidin-4-yl)amino)cyclobutanol]	≤ 100 nM	≤ 100 nM
Cc1nc(N2CC(O)C2)cc(-n2ncc3cc(C)c(C4CCN(C5CCOC5)CC4F)cc32)n1 (single isomer, unassigned) [Example E13, cis-1-(6-(6-(3-Fluoro-1-(tetrahydrofuran-3-yl)piperidin-4-yl)-5-methyl-1H-indazol-1-yl)-2-methylpyrimidin-4-yl)azetidin-3-ol]	≤ 100 nM	≤ 1000 nM
Cc1nc(N2CCOC[C@@H]2CO)cc(-n2ncc3cc(C)c(C4CCN(C5CCOC5)CC4)cc32)n1 (single isomer, unassigned) [Example E113]	≤ 1000 nM	≤ 1000 nM
Cc1nc(N2CCO[C@H](CO)C2)cc(-n2ncc3cc(C)c(C4CCN(C5COCC5C)CC4)cc32)n1 (stereo partly drawn) [Example E155, ((2S)-4-(2-methyl-6-(5-methyl-6-(1-(4-methyltetrahydrofuran-3-yl)piperidin-4-yl)-1H-indazol-1-yl)pyrimidin-4-yl)morpholin-2-yl)methanol]	≤ 1000 nM	≤ 100 nM
